The results in this text go back to US10780090B2, “Heteroaryl compounds useful as inhibitors of SUMO activating enzyme” (Millennium Pharmaceuticals, Inc., priority 2014, dated 2020).

The assay addresses recombinant human SAE enzyme (Homo sapiens (Human), UniProt Q9UBT2). The experiment in a line: SAE HTRF enzyme assay. In kind it is biochemical. The settings on record: for inhibition at 0.111 µM / Percent Inhibition: Concentration 0.111 μM; for inhibition at 0.111 µM: read-out: Percent Inhibition; for IC50: class symbols A/B/C. The procedure, abridged: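 HTRF read-out using Eu-cryptate anti-Flag and allophycocyanin anti-GST antibodies, added with EDTA stop buffer and read after 2 h at 24 °C. The preceding reaction ran 105 min at 24 °C: 0.11 nM recombinant SAE, 0.5 μM ATP, Sumo-Flag, Ubc9-GST, pH 7.5. Values given as single-concentration inhibition or IC50.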

Chain of recombinant human SAE enzyme (Q9UBT2 whole entry): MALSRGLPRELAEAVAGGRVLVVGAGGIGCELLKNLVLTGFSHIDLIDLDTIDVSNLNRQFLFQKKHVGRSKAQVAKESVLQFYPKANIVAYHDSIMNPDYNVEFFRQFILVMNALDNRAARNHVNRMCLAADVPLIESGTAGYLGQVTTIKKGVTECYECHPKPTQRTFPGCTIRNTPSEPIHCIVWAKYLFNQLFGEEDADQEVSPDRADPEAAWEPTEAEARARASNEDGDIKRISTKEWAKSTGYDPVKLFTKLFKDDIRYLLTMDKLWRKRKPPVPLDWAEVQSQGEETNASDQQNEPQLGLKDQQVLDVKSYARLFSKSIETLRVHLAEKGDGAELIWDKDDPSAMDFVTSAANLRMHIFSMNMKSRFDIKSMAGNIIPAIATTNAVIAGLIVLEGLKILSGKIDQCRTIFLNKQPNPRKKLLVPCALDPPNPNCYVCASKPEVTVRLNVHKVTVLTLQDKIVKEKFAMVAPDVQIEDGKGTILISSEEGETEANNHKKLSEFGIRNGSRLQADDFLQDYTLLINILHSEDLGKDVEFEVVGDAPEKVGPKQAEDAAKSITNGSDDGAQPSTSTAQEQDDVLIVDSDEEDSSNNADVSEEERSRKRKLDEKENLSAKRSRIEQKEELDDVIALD
Chain of recombinant human SAE enzyme (Q9UBE0 whole entry partner): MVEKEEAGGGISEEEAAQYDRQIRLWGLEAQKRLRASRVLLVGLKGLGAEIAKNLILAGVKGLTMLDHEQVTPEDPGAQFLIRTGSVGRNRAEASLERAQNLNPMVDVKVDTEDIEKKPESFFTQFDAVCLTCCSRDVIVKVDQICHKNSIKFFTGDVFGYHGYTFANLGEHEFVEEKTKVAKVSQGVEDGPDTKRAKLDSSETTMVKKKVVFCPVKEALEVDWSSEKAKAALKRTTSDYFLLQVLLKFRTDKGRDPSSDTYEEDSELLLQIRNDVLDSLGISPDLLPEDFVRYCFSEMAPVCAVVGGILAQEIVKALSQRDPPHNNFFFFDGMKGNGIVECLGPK

As for `NS(=O)(=O)OC[C@H]1C[C@@H](Nc2ncncc2C(=O)c2cc(Cn3ccc4ccncc43)cs2)C[C@@H]1O` [I-186, {(1R,2S,4R)-2-hydroxy-4-[(5-{[4-(1H-pyrrolo[2,3-c]pyridin-1-ylmethyl)-2-thienyl]carbonyl}pyrimidin-4-yl)amino]cyclopentyl}methyl sulfamate], the inhibition at 0.111 µM was 83% and the IC50 was in the range of 10 to 100 nM.
On the same counts, the results for `NS(=O)(=O)OC[C@H]1C[C@@H](Nc2ncncc2C(=O)c2cc(CN3Cc4ccccc4C3)cs2)C[C@@H]1O` [I-187, {(1R,2S,4R)-4-[(5-{[4-(1,3-dihydro-2H-isoindol-2-ylmethyl)-2-thienyl]carbonyl}pyrimidin-4-yl)amino]-2-hydroxycyclopentyl}methyl sulfamate] are 76% and 10 to 100 nM.
In the same order, the values of `NS(=O)(=O)OC[C@H]1C[C@@H](Nc2ncncc2C(=O)c2cc(COc3ccccc3C(F)(F)F)cs2)C[C@@H]1O` [I-188, [(1R,2S,4R)-2-hydroxy-4-({5-[(4-{[2-(trifluoromethyl)phenoxy]methyl}-2-thienyl)carbonyl]pyrimidin-4-yl}amino)cyclopentyl]methyl sulfamate] are 79% and 10 to 100 nM.
On the same counts, the results for `NS(=O)(=O)OC[C@H]1C[C@@H](Nc2ncncc2C(=O)c2cc(Sc3cccc(C(F)(F)F)c3)c(Cl)s2)C[C@@H]1O` [I-189, [(1R,2S,4R)-4-({5-[(5-chloro-4-{[3-(trifluoromethyl)phenyl]sulfanyl}-2-thienyl)carbonyl]pyrimidin-4-yl}amino)-2-hydroxycyclopentyl]methyl sulfamate] are 78% and 10 to 100 nM.
With `NS(=O)(=O)OC[C@H]1C[C@@H](Nc2ncncc2C(=O)c2cc(CN3CCn4ccnc4C3)cs2)C[C@@H]1O` [I-190, {(1R,2S,4R)-4-[(5-{[4-(5,6-dihydroimidazo[1,2-a]pyrazin-7(8H)-ylmethyl)-2-thienyl]carbonyl}pyrimidin-4-yl)amino]-2-hydroxycyclopentyl}methyl sulfamate], the inhibition at 0.111 µM was determined as 77% and the concentration for half-maximal inhibition (IC50) fell in the range of 10 to 100 nM.
In the same order, the values of `CC(C)c1ccccc1OCc1csc(C(=O)c2cncnc2N[C@@H]2C[C@H](COS(N)(=O)=O)[C@@H](O)C2)c1` [I-191, [(1R,2S,4R)-2-hydroxy-4-{[5-({4-[(2-isopropylphenoxy)methyl]-2-thienyl}carbonyl)pyrimidin-4-yl]amino}cyclopentyl]methyl sulfamate] are 72% and 10 to 100 nM.
With `NS(=O)(=O)OC[C@H]1C[C@@H](Nc2ncncc2C(=O)c2cc(Cn3cnc4ccccc43)cs2)C[C@@H]1O` [I-192, {(1R,2S,4R)-4-[(5-{[4-(1H-benzimidazol-1-ylmethyl)-2-thienyl]carbonyl}pyrimidin-4-yl)amino]-2-hydroxycyclopentyl}methyl sulfamate], the inhibition at 0.111 µM came out at 66% and the IC50 was 10 to 100 nM.
In the case of `NS(=O)(=O)OC[C@H]1C[C@@H](Nc2ncncc2C(=O)c2cc(CC3=CCOC3)cs2)C[C@@H]1O` [I-193, {(1R,2S,4R)-4-[(5-{[4-(2,5-dihydrofuran-3-ylmethyl)-2-thienyl]carbonyl}pyrimidin-4-yl)amino]-2-hydroxycyclopentyl}methyl sulfamate], the inhibition at 0.111 µM came out at 72% and the IC50 lay in the range of 10 to 100 nM.
Turning to `Cc1sc(C(=O)c2cncnc2N[C@@H]2C[C@H](COS(N)(=O)=O)[C@@H](O)C2)cc1Cn1ccc(C#N)c1` [I-194, [(1R,2S,4R)-4-{[5-({4-[(3-cyano-1H-pyrrol-1-yl)methyl]-5-methyl-2-thienyl}carbonyl)pyrimidin-4-yl]amino}-2-hydroxycyclopentyl]methyl sulfamate], the inhibition at 0.111 µM was found to be 66% and the IC50 was in the range of 10 to 100 nM.
Turning to `NS(=O)(=O)OC[C@H]1C[C@@H](Nc2ncncc2C(=O)c2cc(CC3=CCOCC3)cs2)C[C@@H]1O` [I-196, {(1R,2S,4R)-4-[(5-{[4-(3,6-dihydro-2H-pyran-4-ylmethyl)-2-thienyl]carbonyl}pyrimidin-4-yl)amino]-2-hydroxycyclopentyl}methyl sulfamate], the inhibition at 0.111 µM turned out to be 63% and the IC50 lay in the range of 10 to 100 nM.
For the compound `NS(=O)(=O)OC[C@H]1C[C@@H](Nc2ncncc2C(=O)c2cc(CC3CCCCC3)cs2)C[C@@H]1O` [I-199, {(1R,2S,4R)-4-[(5-{[4-(Cyclohexylmethyl)-2-thienyl]carbonyl}pyrimidin-4-yl)amino]-2-hydroxycyclopentyl}methyl sulfamate], the inhibition at 0.111 µM is 63% and the half-maximal inhibitory concentration (IC50) lay within 10 to 100 nM.
As for `NS(=O)(=O)OC[C@H]1C[C@@H](Nc2ncncc2C(=O)c2cc(S(=O)(=O)c3ccccc3)cs2)C[C@@H]1O` [I-200, {(1R,2S,4R)-2-Hydroxy-4-[(5-[4-(phenylsulfonyl)-2-thienyl]carbonyl}pyrimidin-4-yl)amino]cyclopentyl}methyl sulfamate], the “Percent Inhibition” value is recorded as 62 and the IC50 lay within 10 to 100 nM.
On to `CC(C)Oc1ccccc1OCc1csc(C(=O)c2cncnc2N[C@@H]2C[C@H](COS(N)(=O)=O)[C@@H](O)C2)c1` [I-201, [(1R,2S,4R)-2-hydroxy-4-{[5-({4-[(2-isopropoxyphenoxy)methyl]-2-thienyl}carbonyl)pyrimidin-4-yl]amino}cyclopentyl]methyl sulfamate], for which the inhibition at 0.111 µM turned out to be 60% and the IC50 lay within 10 to 100 nM.
In the same order, the values of `CC(C)(O)c1ccc(C(=O)c2cncnc2N[C@@H]2C[C@H](COS(N)(=O)=O)[C@@H](O)[C@H]2O)s1` [I-202, {(1R,2R,3S,4R)-2,3-dihydroxy-4-[(5-{[5-(2-hydroxypropan-2-yl)-2-thienyl]carbonyl}pyrimidin-4-yl)amino]cyclopentyl}methyl sulfamate] are 60% and 10 to 100 nM.
On the same counts, the results for `NS(=O)(=O)OC[C@H]1C[C@@H](Nc2ncncc2C(=O)c2cc(S(=O)(=O)c3cccc(Cl)c3)c(Cl)s2)C[C@@H]1O` [I-203, [(1R,2S,4R)-4-{[5-({5-chloro-4-[(3-chlorophenyl)sulfonyl]-2-thienyl}carbonyl)pyrimidin-4-yl]amino}-2-hydroxycyclopentyl]methyl sulfamate] are 58% and 10 to 100 nM.
On the same counts, the results for `NS(=O)(=O)OC[C@H]1C[C@@H](Nc2ncncc2C(=O)c2cc(CN3CC=CCC3)cs2)C[C@@H]1O` [I-204, {(1R,2S,4R)-4-[(5-{[4-(3,6-dihydropyridin-1(2H)-ylmethyl)-2-thienyl]carbonyl}pyrimidin-4-yl)amino]-2-hydroxycyclopentyl}methyl sulfamate] are 52% and 10 to 100 nM.
Consider `NS(=O)(=O)OC[C@H]1C[C@@H](Nc2ncncc2C(=O)c2ccc(Cc3cccc(Cl)c3)s2)[C@@H](F)[C@@H]1O` [I-205, {(1R,2R,3R,4R)-4-[(5-{[5-(3-Chlorobenzyl)-2-thienyl]carbonyl}pyrimidin-4-yl)amino]-3-fluoro-2-hydroxycyclopentyl}methyl sulfamate], for which the inhibition at 0.111 µM was determined as 51% and the concentration for half-maximal inhibition (IC50) lay within 100 to 1000 nM.
In the same order, the values of `NS(=O)(=O)OC[C@H]1C[C@@H](Nc2ncncc2C(=O)c2ccc(CO)o2)C[C@@H]1O` [I-206, [(1R,2S,4R)-2-hydroxy-4-({5-[5-(hydroxymethyl)-2-furoyl]pyrimidin-4-yl}amino)cyclopentyl]methyl sulfamate] are 49% and 100 to 1000 nM.
In the same order, the values of `NS(=O)(=O)OC[C@H]1C[C@@H](Nc2ncncc2C(=O)c2cc(C(=O)c3cccc(Cl)c3)c(Cl)s2)C[C@@H]1O` [I-207, {(1R,2S,4R)-4-[(5-{[5-Chloro-4-(3-chlorobenzoyl)-2-thienyl]carbonyl}pyrimidin-4-yl)amino]-2-hydroxycyclopentyl}methyl sulfamate] are 51% and 100 to 1000 nM.
Take `NS(=O)(=O)OC[C@H]1C[C@@H](Nc2ncncc2C(=O)c2cc(C(=O)c3ccccc3)co2)C[C@@H]1O` [I-208, [(1R,2S,4R)-4-{[5-(4-benzoyl-2-furoyl)pyrimidin-4-yl]amino}-2-hydroxycyclopentyl]methyl sulfamate]: the inhibition at 0.111 µM came to 46% and the IC50 lay within 100 to 1000 nM.
On the same counts, the results for `NS(=O)(=O)OC[C@H]1C[C@@H](Nc2ncncc2C(=O)c2cc(Cc3cncc(Cl)c3)cs2)C[C@@H]1O` [I-210, [(1R,2S,4R)-4-{[5-({4-[(5-chloropyridin-3-yl)methyl]-2-thienyl}carbonyl)pyrimidin-4-yl]amino}-2-hydroxycyclopentyl]methyl sulfamate] are 50% and 100 to 1000 nM.
With `NS(=O)(=O)OC[C@H]1C[C@@H](Nc2ncncc2C(=O)c2cc(CO)c(Cl)s2)C[C@@H]1O` [I-211, {(1R,2S,4R)-4-[(5-{[5-Chloro-4-(hydroxymethyl)-2-thienyl]carbonyl}pyrimidin-4-yl)amino]-2-hydroxycyclopentyl}methyl sulfamate], the inhibition at 0.111 µM was determined as 39% and the IC50 lay in the range of 100 to 1000 nM.
On to `COCc1ccc(C(=O)c2cncnc2N[C@@H]2C[C@H](COS(N)(=O)=O)[C@@H](O)C2)o1` [I-212, [(1R,2S,4R)-2-hydroxy-4-({5-[5-(methoxymethyl)-2-furoyl]pyrimidin-4-yl}amino)cyclopentyl]methyl sulfamate], for which the inhibition at 0.111 µM was determined as 43% and the IC50 was in the range of 100 to 1000 nM.
For the compound `NS(=O)(=O)OC[C@H]1C[C@@H](Nc2ncncc2C(=O)c2cc(C(=O)c3ccccc3)c(Cl)s2)C[C@@H]1O` [I-215, [(1R,2S,4R)-4-({5-(4-Benzoyl-5-chlor-2-thienyl)carbonyl]pyrimidin-4-yl}amino)-2-hydroxycyclopentyl]methyl sulfamate], the “Percent Inhibition” value stood at 36 and the IC50 fell in the range of 100 to 1000 nM.
`NS(=O)(=O)OC[C@H]1C[C@@H](Nc2ncncc2C(=O)c2cc(CO)co2)C[C@@H]1O` [I-216, [(1R,2S,4R)-2-Hydroxy-4-{(5-[4-(hydroxymethyl)-2-furoyl]pyrimidin-4-yl}amino)cyclopentyl]methyl sulfamate]: the inhibition at 0.111 µM came out at 36% and the IC50 lay within 100 to 1000 nM.

What is called inhibition is how much of the control response was suppressed. In general, IC50 refers to the concentration needed to halve the response being measured.
